Test results taken from publication PMC7139549, “TLD1433 Photosensitizer Inhibits Conjunctival Melanoma Cells in Zebrafish Ectopic and Orthotopic Tumour Models” (Cancers, 2020).
Where two headings read alike, the source gives them in different places.

Tested on: A375 cutaneous melanoma cell line
Assay: SRB cell viability assay, A375
Type: cell-based, Human
Method: TLD1433 is known to generate reactive oxygen species (ROS) with high quantum efficacy in many cancer cell lines. However, there is no report of the in vitro toxicity of this compound in eye melanoma (UM) cell lines. We determined the cell viability of three conjunctival melanoma cell lines (CRMM1, CRMM2 and CM2005.1), and three uveal melanoma cell lines (OMM1, OMM2.5, MEL270) in the presence of TLD1433, both in the dark or under green light irradiation (21 mW/cm^2, 19 J/cm^2, 520 nm, 15 min), and compared this viability to epidermoid carcinoma A431 and cutaneous melanoma A375 cell lines under the same conditions. […] The phototoxicity index (PI), defined as the ratio of the dark EC50 to the light EC50, was also calculated and represents the amplification of TLD1433 activity with a light trigger. […]
Figure 2 Cell viability after TLD1433 treatment of eight tumour cell lines (CRMM1, CRMM2, CM2005.1, OMM1, OMM2.5, MEL270, A431, A375). […] The absorbance of Sulforhodamine B in solution was measured at 520 nm. […]
At day 0, cells were detached using 1mL of trypsin, resuspended in 4 mL of media and transferred to a 15 mL corning falcon tube. Cells were counted using trypan blue and BioRad® TC20™ automated cell counter (Figure 11). […] Next day, the dye was dissolved using Tri-base (0.25%) and absorbance of SRB at 510 nm was recorded from each well using a Tecan plate reader. […]

Cc1ccnc(-c2cc(C)ccn2)c1.Cc1ccnc(-c2cc(C)ccn2)c1.[Cl-].[Cl-].[Ru+2].c1csc(-c2ccc(-c3ccc(-c4nc5c6cccnc6c6ncccc6c5[nH]4)s3)s2)c1 [TLD1433]
EC50 (A375, dark, 24 h treatment, SRB, read-out: EC50, dark): > 5000 nM
EC50 (A375, green light 520 nm, 15 min, 21 mW/cm^2, 19 J.cm^−2, DLI 24 h, read-out: EC50,light): 50 nM
